Results taken from US9539196B2, “Compositions comprising a SIRT6 activator and a DNA repair enzyme” (ELC Management LLC, priority 2014, dated 2017).
Where two headings read alike, the source gives them in different places. Ends that are not written are not given here.

Key:
SIRT6 = details: Normal Human Epidermal Keratinocytes (NHEK); cited from earlier work
[1] = tested on: Normal Human Epidermal Keratinocytes (NHEK); experiment: Comet assay of DNA fragmentation in NHEK exposed to UVB (Test Example 1); assay type: cell-based; details: FIG. 1
Procedure: This study used control samples and three types of test samples. Control samples were neither treated with the peptide, nor exposed to UVB radiation. Type 1 samples were treated with the peptide, as described below, but not exposed to UVB radiation. Type 2 samples were not treated with the peptide, but were exposed to UVB radiation. Type 3 samples were treated with the peptide, as described below, and exposed to UVB radiation. SIRT6 activating peptide (SEQ ID No. 1) in powdered form was prepared in solution at 50 ppm.
For all test samples, Normal Human Epidermal Keratinocytes (NHEK) were seeded on Trevigen Flare™ slides at 8,000 cells/spot for DNA fragmentation analysis. Cells were incubated at 37° C., 95% humidity and 5% CO2 in cell culture media for 24 hours. Type 1 and type 3 samples were treated with the 50 ppm powdered peptide solution at 3% of the cell culture media (equivalent to 0.00015% of peptide in solution), and all samples were incubated for 48 hours. Thereafter, the cell culture media was removed from all samples and replaced with 100 μl of Dulbecco's Phosphate Buffered Saline. […]
Following the six hour incubation, the sample cells were washed with phosphate buffered saline. […] The tail moments were analyzed with the Comet Score software from TriTek, Corp (Sumerduck, Va.). […]

sirtuin 6 = details: cited from earlier work; for sirtuin 6 expression: short-term cultures

Gly-Ala-Gly-Val-Ser-Ala-Glu-NH2 (GAGVSAE-NH2) [SEQ ID No. 1]
SIRT6 expression (SIRT6): dose dependent increase in SIRT6 expression
DNA fragmentation (comet tail moment) ([1]; type 1 samples: NHEK treated with peptide (0.00015% in solution), not irradiated): comparable to the control samples
DNA fragmentation (comet tail moment) ([1]; type 3 samples: NHEK pre-treated with peptide 48 h (0.00015%), 20 mJ/cm^2 UVB, post-treated 6 h): comparable to the control samples
sirtuin 6 expression stimulation effect, long term (sirtuin 6; long term cultures): maintained for the long term
sirtuin 6 expression (sirtuin 6; normal human fibroblasts): increase sirtuin 6 expression very significantly
sirtuin 6 expression (sirtuin 6; normal human keratinocytes): increase sirtuin 6 expression very significantly
